Assay results reported in PMC9352624, “Going deeper into the toxicokinetics of synthetic cannabinoids: in vitro contribution of human carboxylesterases” (Archives of Toxicology, 2022).
“And” between values parts separate entries of the source, which are not always exact repeats. Equal values may be shown once.

Key:
hCES2 = target: T1, hCES2 (Homo sapiens, UniProt O00748); experiment: Initial activity screening with recombinant hCES2; settings: 100 µM substrate, 30 min, 37 °C, 0.2 µg/µL protein, LC–ITMS; for Relative amount of hydrolysis metabolite formed, hCES2: mean n = 2
T1 sequence (O00748 27-559): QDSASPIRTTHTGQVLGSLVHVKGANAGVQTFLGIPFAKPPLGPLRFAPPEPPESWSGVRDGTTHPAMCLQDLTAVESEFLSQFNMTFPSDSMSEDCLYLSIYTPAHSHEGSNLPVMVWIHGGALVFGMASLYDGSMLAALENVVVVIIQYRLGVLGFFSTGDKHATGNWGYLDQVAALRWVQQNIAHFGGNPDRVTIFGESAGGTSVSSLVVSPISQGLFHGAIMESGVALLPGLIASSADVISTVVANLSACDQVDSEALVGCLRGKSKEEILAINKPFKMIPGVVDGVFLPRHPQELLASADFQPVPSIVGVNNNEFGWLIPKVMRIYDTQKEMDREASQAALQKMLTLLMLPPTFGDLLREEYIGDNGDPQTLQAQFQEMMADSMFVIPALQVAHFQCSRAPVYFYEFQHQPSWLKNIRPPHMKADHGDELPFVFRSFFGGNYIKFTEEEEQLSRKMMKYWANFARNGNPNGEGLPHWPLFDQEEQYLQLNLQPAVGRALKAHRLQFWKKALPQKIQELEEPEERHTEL

hCES1b [1] = target: T2, hCES1b (Homo sapiens, UniProt P23141); experiment: Initial activity screening with recombinant hCES1b; settings: 100 µM substrate, 30 min, 37 °C, 0.2 µg/µL protein, LC–ITMS; for Relative amount of hydrolysis metabolite formed, hCES1b: mean n = 2
T2 sequence (P23141 18-567): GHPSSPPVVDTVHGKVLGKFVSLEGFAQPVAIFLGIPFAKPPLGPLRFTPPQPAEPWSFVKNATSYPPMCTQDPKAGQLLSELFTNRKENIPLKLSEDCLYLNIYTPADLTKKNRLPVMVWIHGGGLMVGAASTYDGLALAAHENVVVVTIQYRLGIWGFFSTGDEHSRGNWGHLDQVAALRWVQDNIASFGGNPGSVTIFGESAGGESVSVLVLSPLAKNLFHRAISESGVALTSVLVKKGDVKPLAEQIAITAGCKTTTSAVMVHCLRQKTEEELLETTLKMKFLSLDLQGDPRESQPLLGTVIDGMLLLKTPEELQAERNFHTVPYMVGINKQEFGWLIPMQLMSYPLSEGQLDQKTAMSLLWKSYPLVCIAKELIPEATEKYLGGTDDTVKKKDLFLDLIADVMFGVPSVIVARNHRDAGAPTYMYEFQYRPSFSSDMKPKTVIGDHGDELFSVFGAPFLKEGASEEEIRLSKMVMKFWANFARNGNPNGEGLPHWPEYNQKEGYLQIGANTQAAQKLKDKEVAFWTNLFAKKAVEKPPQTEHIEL

hCES1c [2] = target: T3, hCES1c (Homo sapiens, UniProt P23141); experiment: Initial activity screening with recombinant hCES1c; settings: 100 µM substrate, 30 min, 37 °C, 0.2 µg/µL protein, LC–ITMS; for Relative amount of hydrolysis metabolite formed, hCES1c: mean n = 2
T3 sequence (P23141 18-566 isoform P23141-3 limits assumed): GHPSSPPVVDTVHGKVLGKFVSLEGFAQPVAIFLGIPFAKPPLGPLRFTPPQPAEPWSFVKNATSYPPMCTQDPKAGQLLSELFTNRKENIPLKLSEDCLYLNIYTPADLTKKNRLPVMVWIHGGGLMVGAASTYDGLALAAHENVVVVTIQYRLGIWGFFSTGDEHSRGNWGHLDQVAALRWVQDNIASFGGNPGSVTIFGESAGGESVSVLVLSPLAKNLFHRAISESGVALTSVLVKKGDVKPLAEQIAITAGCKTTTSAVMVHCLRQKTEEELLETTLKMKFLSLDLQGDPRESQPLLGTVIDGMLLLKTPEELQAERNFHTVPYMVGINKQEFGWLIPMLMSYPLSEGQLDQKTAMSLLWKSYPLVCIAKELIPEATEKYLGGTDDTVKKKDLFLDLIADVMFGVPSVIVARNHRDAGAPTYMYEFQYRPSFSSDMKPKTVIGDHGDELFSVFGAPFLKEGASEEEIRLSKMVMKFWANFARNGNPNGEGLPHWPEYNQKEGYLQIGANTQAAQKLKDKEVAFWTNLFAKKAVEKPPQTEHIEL

hCES1c [3] = target: T3, hCES1c; experiment: Enzyme kinetic studies of ester hydrolysis with hCES1c; settings: for Clint (relative in vitro intrinsic clearance), hCES1c: Clint = Vmax/Km; for Vmax (relative), ester hydrolysis by hCES1c: ± S.D., peak area ratio metabolite/internal standard
[4] = Initial activity screening with pooled human liver S9 fraction; settings: 100 µM substrate, 30 min, 37 °C, 2 µg/µL protein, LC–ITMS, mean n = 2
hCES1b [5] = target: T2, hCES1b; experiment: Enzyme kinetic studies of ester hydrolysis with hCES1b; settings: for Clint (relative in vitro intrinsic clearance), hCES1b: Clint = Vmax/Km; for Vmax (relative), ester hydrolysis by hCES1b: peak area ratio metabolite/internal standard
[6] = Initial activity screening with pooled human liver microsomes; settings: 100 µM substrate, 30 min, 37 °C, 2 µg/µL protein, LC–ITMS, mean n = 2

Row | Compound | Hydrolysis of carboxamide linker, hCES2 (hCES2) | Hydrolysis of carboxamide/ester in head group, hCES2 (hCES2) | Hydrolysis of carboxamide linker, hCES1b (hCES1b [1]) | Hydrolysis of carboxamide/ester in head group, hCES1b (hCES1b [1]) | Hydrolysis of carboxamide linker, hCES1c (hCES1c [2]) | Hydrolysis of carboxamide/ester in head group, hCES1c (hCES1c [2]) | Clint (relative in vitro intrinsic clearance), hCES1c (hCES1c [3]) [AU/min/mg/µM] | Vmax (relative), ester hydrolysis by hCES1c (hCES1c [3]) | Relative amount of hydrolysis metabolite formed, pHLS9 [4] | Relative amount of hydrolysis metabolite formed, hCES2 (hCES2) [%] | Relative amount of hydrolysis metabolite formed, hCES1b (hCES1b [1]) | Relative amount of hydrolysis metabolite formed, hCES1c (hCES1c [2]) | Clint (relative in vitro intrinsic clearance), hCES1b (hCES1b [5]) [AU/min/mg/µM] | Vmax (relative), ester hydrolysis by hCES1b (hCES1b [5]; ± S.D.) | Relative amount of hydrolysis metabolite formed, pHLM [6] | Km (hCES1b [5]; read-out: Km, ester hydrolysis by hCES1b, ± S.D., Michaelis–Menten fit, conditions of Table 1) [µM]
1 | CC(C)[C@H](NC(=O)c1cn(CCCCCF)c2ncccc12)C(N)=O [AB-5F-P7AICA, (S)-N-(1-amino-3-methyl-1-oxobutan-2-yl)-1-(5-fluoropentyl)-1H-pyrrolo[2,3-b]pyridine-3-carboxamide] | − | − | − | − | − | − |  |  |  |  |  |  |  |  |  | 
2 | CC(C)C(NC(=O)c1nn(CC2CCCCC2)c2ccccc12)C(=O)O (stereo not shown) [MBA-CHMINACA, 2-[1-(cyclohexylmethyl)-1H-indazole-3-carboxamido]-3-methylbutanoic acid] | − |  | − |  | − |  |  |  |  |  |  |  |  |  |  | 
3 | C=CCCCn1cc(C(=O)N[C@H](C(=O)OC)C(C)C)c2ccccc21 [MMB-4en-PICA, methyl (1-(pent-4-en-1-yl)-1H-indole-3-carbonyl)-L-valinate] | − | + | − | + | − | + | 0.04 | 7.57 AU/min/mg and 7.57 ± 0.42 AU/min/mg | 11% | 0.2 | 1.5% | 5.7% |  |  |  | 
4 | CC(C)(C)C(NC(=O)c1nn(CC2CCCCC2)c2ccccc12)C(=O)O (stereo not shown) [DMBA-CHMINACA, 2-[1-(cyclohexylmethyl)-1H-indazole-3-carboxamido]-3,3-dimethylbutanoic acid] | − |  | − |  | − |  |  |  |  |  |  |  |  |  |  | 
5 | COC(=O)C(Cc1ccccc1)NC(=O)c1cn(CCCCCF)c2ccccc12 [MPhP-5F-PICA, methyl (1-(5-fluorpentyl)-1H-indole-3-carbonyl)-L-phenylalaninate] | − | + | − | + | − | + | 3.2 | 73.6 AU/min/mg and 73.6 ± 3.8 AU/min/mg |  | 2.1 | 19% | 20% | 2.0 | 182 AU/min/mg and 182 ± 13 AU/min/mg |  | 
6 | COC(=O)[C@@H](NC(=O)c1nn(CCCCF)c2ccccc12)C(C)(C)C [MDMB-4F-BINACA, methyl (2S)-2-[1-(4-fluorobutyl)-1H-indazole-3-carbonyl]amino-3,3-dimethylbutanoate] | − |  | − | + | − | + |  |  | around 1% |  | below 1% | below 1% |  |  | 4.3% | 
7 | CC(C)[C@H](NC(=O)c1cc(-c2ccc(F)cc2)nn1CCCCCF)C(N)=O [3,5-AB-5F-FUPPYCA, N-[(1S)-1-(aminocarbonyl)-2-methylpropyl]-1-(5-fluoropentyl)-3-(4-fluorophenyl)-1H-pyrazole-5-carboxamide] | − | − | − | − | − | − |  |  |  |  |  |  |  |  |  | 
8 | N-[(2S)-1-amino-3,3-dimethyl-1-oxobutan-2-yl]-1-(cyclohexylmethyl)-1H-indole-3-carboxamide [MMB-CHMICA] | − |  | − | + | − | + |  |  |  |  | 14% | 2.3% | 0.53 | 20.8 AU/min/mg and 20.8 ± 2.2 AU/min/mg | 25% | 39.3 ± 12
9 | C=CCCCn1nc(C(=O)N[C@H](C(=O)OC)C(C)(C)C)c2ccccc21 [MDMB-4en-PINACA, methyl (2S)-3,3-dimethyl-2-[(1-pent-4-enylindazole-3-carbonyl)amino]butanoate] | − |  | − | + | − | + |  |  | around 1% |  | below 1% | below 1% |  |  | around 1% | 
10 | COC(=O)[C@@H](NC(=O)c1cn(Cc2ccc(F)cc2)c2ccccc12)C(C)(C)C [MDMB-FUBICA, methyl (2S)-2-({1-[(4-fluorophenyl)methyl]-1H-indole-3-carbonyl}amino)-3,3-dimethylbutanoate] | − |  | − | − | − | + |  |  | around 1% |  |  | below 1% |  |  | around 1% | 
11 | O=C(NC12CC3CC(CC(C3)C1)C2)c1nn(CC2CCCCC2)c2ccccc12 [A-CHMINACA, 1-cyclohexylmethyl-N-tricyclo[3.3.1.13,7]dec-1-yl-1H-indazole-3-carboxamide] | − |  | − |  | − |  |  |  |  |  |  |  |  |  |  | 
12 | COC(=O)[C@@H](NC(=O)c1cn(CCCCCF)c2ccccc12)C(C)(C)C [MDMB-5F-PICA, methyl (2S)-2-{[1-(5-fluoropentyl)-1H-indole-3-carbonyl]amino}-3,3-dimethylbutanoate] | − |  | − | − | − | − |  |  |  |  |  |  |  |  |  | 
